Measured values taken from PMC9516332 (Frontiers in Oncology, 2022).
Where two headings read alike, the source gives them in different places.

Columns and labels:
Experiment in all cases: Kinase panel profiling at 1 µmol/L (MSA or IMAP), percentage inhibition
Format in all cases: biochemical
[1] = target: panel of 255 wild-type kinases (Homo sapiens, UniProt O60674); settings: read-out: %-inhibition at 1 µmol/L, JAK2
[2] = target: T1, panel of 255 wild-type kinases (Homo sapiens, UniProt P29323); settings: read-out: %-inhibition at 1 µmol/L, EPHB2
T1 sequence (P29323 19-1055): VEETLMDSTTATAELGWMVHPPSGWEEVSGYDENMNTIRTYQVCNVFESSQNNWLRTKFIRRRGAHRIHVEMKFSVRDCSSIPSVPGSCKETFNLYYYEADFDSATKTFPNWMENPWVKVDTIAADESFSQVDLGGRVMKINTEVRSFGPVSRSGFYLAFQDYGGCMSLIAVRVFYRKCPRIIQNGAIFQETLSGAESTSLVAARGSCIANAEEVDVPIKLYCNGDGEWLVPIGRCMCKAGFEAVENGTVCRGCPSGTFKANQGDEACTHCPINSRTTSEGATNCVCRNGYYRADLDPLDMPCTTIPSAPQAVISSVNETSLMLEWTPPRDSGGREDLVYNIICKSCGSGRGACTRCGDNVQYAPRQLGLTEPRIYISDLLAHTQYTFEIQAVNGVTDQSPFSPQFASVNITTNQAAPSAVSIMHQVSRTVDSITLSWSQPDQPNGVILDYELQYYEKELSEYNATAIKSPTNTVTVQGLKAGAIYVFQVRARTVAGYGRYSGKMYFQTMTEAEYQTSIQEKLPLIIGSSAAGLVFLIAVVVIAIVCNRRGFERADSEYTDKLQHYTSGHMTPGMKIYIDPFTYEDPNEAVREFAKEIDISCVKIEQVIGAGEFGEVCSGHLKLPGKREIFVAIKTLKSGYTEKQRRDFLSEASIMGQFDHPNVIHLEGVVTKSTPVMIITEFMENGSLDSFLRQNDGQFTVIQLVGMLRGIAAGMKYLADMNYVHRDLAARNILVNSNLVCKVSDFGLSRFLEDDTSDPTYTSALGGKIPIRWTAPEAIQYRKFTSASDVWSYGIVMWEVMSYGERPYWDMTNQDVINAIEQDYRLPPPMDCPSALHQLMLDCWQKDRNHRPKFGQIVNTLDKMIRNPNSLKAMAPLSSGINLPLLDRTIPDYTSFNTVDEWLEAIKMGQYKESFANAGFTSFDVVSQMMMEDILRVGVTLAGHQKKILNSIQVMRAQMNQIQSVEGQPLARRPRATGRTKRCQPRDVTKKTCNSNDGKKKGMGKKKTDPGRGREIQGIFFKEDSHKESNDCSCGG

[3] = target: panel of 255 wild-type kinases (Homo sapiens, UniProt P29376); settings: read-out: %-inhibition at 1 µmol/L, LTK
[4] = target: panel of 255 wild-type kinases (Homo sapiens, UniProt P29597); settings: read-out: %-inhibition at 1 µmol/L, TYK2
[5] = target: panel of 255 wild-type kinases (Homo sapiens, UniProt P42684); settings: read-out: %-inhibition ARG
[6] = target: panel of 255 wild-type kinases (Homo sapiens, UniProt P45984); settings: read-out: %-inhibition at 1 µmol/L, JNK2
[7] = target: panel of 255 wild-type kinases (Homo sapiens, UniProt P49841); settings: kinase GSK3β; 1 µmol/L single concentration
[8] = target: panel of 255 wild-type kinases (Homo sapiens, UniProt Q13177); settings: read-out: %-inhibition, PAK2
[9] = target: T2, panel of 255 wild-type kinases (Homo sapiens, UniProt Q8IWQ3); settings: read-out: %-inhibition BRSK2
T2 sequence (Q8IWQ3 1-736): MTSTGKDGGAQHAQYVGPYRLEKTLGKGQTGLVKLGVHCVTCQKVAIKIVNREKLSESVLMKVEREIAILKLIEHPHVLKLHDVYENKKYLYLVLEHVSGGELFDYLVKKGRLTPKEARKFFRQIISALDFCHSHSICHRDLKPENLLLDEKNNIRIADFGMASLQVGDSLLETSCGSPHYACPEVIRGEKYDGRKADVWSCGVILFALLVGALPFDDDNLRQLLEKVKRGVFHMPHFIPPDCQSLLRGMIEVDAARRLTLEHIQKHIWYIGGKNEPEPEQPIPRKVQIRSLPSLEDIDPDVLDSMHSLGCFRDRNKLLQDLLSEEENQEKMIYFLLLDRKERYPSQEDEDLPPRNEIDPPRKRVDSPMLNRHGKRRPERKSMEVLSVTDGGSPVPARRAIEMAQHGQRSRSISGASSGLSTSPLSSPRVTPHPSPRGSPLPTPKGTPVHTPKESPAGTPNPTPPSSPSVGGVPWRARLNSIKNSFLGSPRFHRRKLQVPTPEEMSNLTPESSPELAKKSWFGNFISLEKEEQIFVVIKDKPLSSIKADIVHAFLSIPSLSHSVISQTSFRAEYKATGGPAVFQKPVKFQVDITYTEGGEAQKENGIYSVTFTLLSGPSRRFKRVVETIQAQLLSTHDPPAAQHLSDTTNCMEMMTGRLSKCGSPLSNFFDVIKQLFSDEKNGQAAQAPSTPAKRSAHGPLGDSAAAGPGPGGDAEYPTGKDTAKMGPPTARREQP

[10] = target: panel of 255 wild-type kinases (Homo sapiens, UniProt Q8N4C8); settings: read-out: %-inhibition, MINK
[11] = target: panel of 255 wild-type kinases (Homo sapiens, UniProt Q9UPE1); settings: read-out: %-inhibition, MSSK1
[12] = kinase JAK2, 1 µmol/L single concentration
[13] = kinase EPHB2, 1 µmol/L single concentration
[14] = kinase LTK, 1 µmol/L single concentration
[15] = kinase TYK2, 1 µmol/L single concentration
[16] = ARG kinase assay, 1 µmol/L single concentration
[17] = kinase JNK2, 1 µmol/L single concentration
[18] = PAK2, 1 µmol/L single concentration
[19] = BRSK2 kinase assay, 1 µmol/L single concentration
[20] = MINK, 1 µmol/L single concentration
[21] = MSSK1, 1 µmol/L single concentration

| Structure (SMILES) | inhibition at 1 µM [1, 12] | inhibition at 1 µM [2, 13] | inhibition at 1 µM [3, 14] | inhibition at 1 µM [4, 15] | inhibition at 1 µM [5, 16] | inhibition at 1 µM [6, 17] | inhibition at 1 µM [7] | inhibition at 1 µM [8, 18] | inhibition at 1 µM [9, 19] | inhibition at 1 µM [10, 20] | inhibition at 1 µM [11, 21] | also measured |
| --- | --- | --- | --- | --- | --- | --- | --- | --- | --- | --- | --- | --- |
| Cc1nc(NC(=O)N2CCC[C@H]2C(N)=O)sc1-c1ccnc(C(C)(C)C(F)(F)F)c1 [alpelisib] | 1.85% | 1.07% | -2.85% | -4% | 3.28% | 0.494% | -4% | -7% | 14% | -2% | -3.38% |  |
| Cn1cc(-c2cc3c(N4CCN(c5ncc([C@@](C)(N)c6ccc(F)cc6)cn5)CC4)ncnn3c2)cn1 [avapritinib] | 52% | 31% | 51% | 16% | 47% | 1.1% | -5.32% | -4.42% | 11% | 4.44% | 0.0476% |  |
| Cn1cnc2c(F)c(Nc3ccc(Br)cc3F)c(C(=O)NOCCO)cc21 [binimetinib] | -0.409% | 3.33% | 0.411% | -4% | 1.39% | -5.47% | -1.84% | 12% | -13% | -4.54% | -4.37% |  |
| CNC(=O)c1ccc(-c2cnc3ncc(Cc4ccc5ncccc5c4)n3n2)cc1F [capmatinib] |  |  |  |  |  |  |  |  |  |  |  | inhibition at 1 µM [1]: 1.58%; inhibition at 1 µM [2]: -5%; inhibition at 1 µM [3]: 49%; inhibition at 1 µM [4]: 0.148%; inhibition at 1 µM [5]: 3.29%; inhibition at 1 µM [6]: -0.668%; inhibition at 1 µM [8]: -1.68%; inhibition at 1 µM [9]: 1%; inhibition at 1 µM [10]: -4%; inhibition at 1 µM [11]: -3.24% |
| COc1cc2ncnc(Nc3ccc(F)c(Cl)c3)c2cc1NC(=O)/C=C/CN1CCCCC1 [dacomitinib] | 0.856% | 51% | 21% | 6.51% | 40% | 1.27% | 11% | 2.5% | 6.47% | 7.37% | 0.445% |  |
| C[C@H](Nc1ncnc2nc[nH]c12)c1cc2cccc(Cl)c2c(=O)n1-c1ccccc1 [duvelisib] | 3.29% | 2% | 0.216% | 2.8% | 0.877% | 2% | -0.808% | -1% | 11% | 0.317% | -2.73% |  |
| COC(=O)N[C@@H](C)CNc1nccc(-c2cn(C(C)C)nc2-c2cc(Cl)cc(NS(C)(=O)=O)c2F)n1 [encorafenib] | 2.62% | 5.43% | 0.605% | -6% | 1.69% | 61% | 92% | 9.49% | -8% | 1.29% | 1.39% |  |
| CN1CCN(c2ccc(C(=O)Nc3n[nH]c4ccc(Cc5cc(F)cc(F)c5)cc34)c(NC3CCOCC3)c2)CC1 [entrectinib] | 100% | 64% | 100% | 95% | 83% | 7% | -1.6% | -10% | 18% | 1.64% | 12% |  |
| CCc1nc(C(N)=O)c(Nc2ccc(N3CCC(N4CCN(C)CC4)CC3)c(OC)c2)nc1NC1CCOCC1 [gilteritinib] | 95% | 75% | 101% | 70% | 61% | 44% | 4% | 10% | 23% | 80% | 22% |  |
| CCN1CCN(c2ccc(Nc3cc(N(C)C(=O)Nc4c(Cl)c(OC)cc(OC)c4Cl)ncn3)cc2)CC1 [infigratinib] | 2.11% | -0.114% | 60% | -3% | 24% | 2.8% | -9% | 1.66% | 2.65% | -2.82% | -2.83% |  |
| O=C(Nc1cnn2ccc(N3CCC[C@@H]3c3cc(F)ccc3F)nc12)N1CC[C@H](O)C1 [larotrectinib] | 46% | -0.574% | 16% | -0.368% | -0.835% | -0.671% | -11% | -10% | 0.485% | -2.24% | -1.58% |  |
| C[C@H]1Oc2cc(cnc2N)-c2c(nn(C)c2C#N)CN(C)C(=O)c2ccc(F)cc21 [lorlatinib] | 69% | 14% |  | 5% | 1.49% | 3.24% | -4.7% | 11% | 36% | -0.198% | 33% |  |
| CCN1C(=O)N(c2c(F)c(OC)cc(OC)c2F)Cc2cnc3[nH]c(CN4CCOCC4)cc3c21 [pemigatinib] | -2.85% | -0.799% | 1.66% | -6.39% | 7% | 1.27% | -7% | 6% | 3.17% | -4.31% | -7% |  |
